Data published in patent publication US20250289789A1, “REVERSIBLE LYSINE COVALENT MODIFIERS OF CDK2 AND USES THEREOF” (Terremoto Biosciences, Inc., priority 2023, published 2025).

Assay: Oral bioavailability and pharmacokinetic analysis following oral administration in Nu/Nu mice
Details: male, in vivo; for Prodrug AUCinf: mouse, 6 mg
Method: Compound was administered via oral gavage in male Nu/Nu mice (n=3). The vehicle composition was 10% N-Methylpyrrolidone, 40% PEG300, 50% water (pH=4-8) at 6 mg-equivalent/mL to parent drug and a dose volume of 5 mL/Kg. Formulations were prepared freshly before dosing and stored at room temperature. Plasma samples were collected at the following time intervals: 0.5, 1, 2, 4, 8, 12, 24, 48, and 72 hours post dose (based on the start of oral dosing). Serial blood samples were collected (approximately 0.025 mL) via retro-orbital vein into K2EDTA. Whole blood was processed into plasma by centrifuge (4000 rpm for 5 minutes at 4° C.) followed by addition of 0.5 M ammonium formate (pH=3, 300% of plasma volume). Plasma samples were stored in a freezer at −75±15° C. until analysis. Plasma samples were analyzed after thawing and incubating for 1 h at 37° C. followed by protein precipitation with acetonitrile containing IS mixture (vortex 30 s, centrifugation at 4° C., 400 rpm for 15 min) and the resulting supernatant was further diluted with water before injecting onto Shimadzu 8060 LC-MS/MS system for analysis. Unknown plasma samples concentration was calibrated using standard range of 0.2 to 1 000 ng/mL for parent.
Bioavailability (% F) was calculated by comparing observed plasma concentrations of parent drug after oral administration of prodrug or parent drug to observed plasma concentrations via IV (intravenous) administration of parent drug.

Row | Compound | Prodrug Mouse % F [%] | Prodrug AUCinf [µM·h]
1 | COc1cc(O)c(/C=N/C(C)C)c(OCC(=O)Nc2cc([C@H]3CC[C@@H](OC(=O)N4C5COCC4C5)C3)[nH]n2)c1 [Compound 231a, (1R,3S)-3-(3-(2-(3-hydroxy-2-((E)-(isopropylimino)methyl)-5-methoxyphenoxy)acetamido)-1H-pyrazol-5-yl)cyclopentyl 3-oxa-6-azabicyclo[3.1.1]heptane-6-carboxylate] | 2.8 | 12.9
2 | COc1cc(O)c(/C=N/C(C)C)c(OCC(=O)Nc2cc([C@H]3CC[C@@H](OC(=O)N4CC5CC(C4)O5)C3)[nH]n2)c1 [Compound 235a, (1R,3S)-3-(3-(2-(3-hydroxy-2-((E)-(isopropylimino)methyl)-5-methoxyphenoxy)acetamido)-1H-pyrazol-5-yl)cyclopentyl 6-oxa-3-azabicyclo[3.1.1]heptane-3-carboxylate] | 3.2 | 15.2
